In ChEMBL document CHEMBL5465560, “Selectivity Literature for EUbOPEN Chemogenomic Library” (2024):

Tests used:
[1] = target: T1, Protein arginine N-methyltransferase 7 (Homo sapiens) (UniProt Q9NVM4); test: Selectivity interaction (Methyltransferase screen (Scintillation proximity assays)) EUB0000255b PRMT7
T1 sequence (whole entry): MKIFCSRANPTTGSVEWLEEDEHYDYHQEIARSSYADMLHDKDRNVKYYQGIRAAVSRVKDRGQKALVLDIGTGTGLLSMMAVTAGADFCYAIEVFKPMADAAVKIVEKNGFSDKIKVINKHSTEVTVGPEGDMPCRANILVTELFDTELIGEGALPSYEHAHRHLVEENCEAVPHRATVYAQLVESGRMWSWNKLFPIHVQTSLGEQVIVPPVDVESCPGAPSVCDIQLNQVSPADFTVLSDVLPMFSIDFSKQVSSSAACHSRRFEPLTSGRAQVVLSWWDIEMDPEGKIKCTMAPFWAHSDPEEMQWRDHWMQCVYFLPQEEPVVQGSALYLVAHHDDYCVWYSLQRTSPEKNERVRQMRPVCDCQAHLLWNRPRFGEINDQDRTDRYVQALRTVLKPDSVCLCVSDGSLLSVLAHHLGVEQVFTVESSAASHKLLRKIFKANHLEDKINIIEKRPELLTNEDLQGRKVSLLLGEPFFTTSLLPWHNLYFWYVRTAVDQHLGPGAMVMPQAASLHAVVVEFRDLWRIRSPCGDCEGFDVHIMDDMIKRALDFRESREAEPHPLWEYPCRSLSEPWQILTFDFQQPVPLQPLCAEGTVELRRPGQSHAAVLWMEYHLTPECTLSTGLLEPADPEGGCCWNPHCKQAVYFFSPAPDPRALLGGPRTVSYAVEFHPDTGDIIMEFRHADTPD

[2] = target: Angiopoietin-1 receptor (Homo sapiens) (UniProt Q02763); test: Selectivity interaction (KinomeScan (DiscoverX)) EUB0000092b TEK; conditions: at 10 µM
Chain of Angiopoietin-1 receptor (Homo sapiens) (Q02763 whole entry): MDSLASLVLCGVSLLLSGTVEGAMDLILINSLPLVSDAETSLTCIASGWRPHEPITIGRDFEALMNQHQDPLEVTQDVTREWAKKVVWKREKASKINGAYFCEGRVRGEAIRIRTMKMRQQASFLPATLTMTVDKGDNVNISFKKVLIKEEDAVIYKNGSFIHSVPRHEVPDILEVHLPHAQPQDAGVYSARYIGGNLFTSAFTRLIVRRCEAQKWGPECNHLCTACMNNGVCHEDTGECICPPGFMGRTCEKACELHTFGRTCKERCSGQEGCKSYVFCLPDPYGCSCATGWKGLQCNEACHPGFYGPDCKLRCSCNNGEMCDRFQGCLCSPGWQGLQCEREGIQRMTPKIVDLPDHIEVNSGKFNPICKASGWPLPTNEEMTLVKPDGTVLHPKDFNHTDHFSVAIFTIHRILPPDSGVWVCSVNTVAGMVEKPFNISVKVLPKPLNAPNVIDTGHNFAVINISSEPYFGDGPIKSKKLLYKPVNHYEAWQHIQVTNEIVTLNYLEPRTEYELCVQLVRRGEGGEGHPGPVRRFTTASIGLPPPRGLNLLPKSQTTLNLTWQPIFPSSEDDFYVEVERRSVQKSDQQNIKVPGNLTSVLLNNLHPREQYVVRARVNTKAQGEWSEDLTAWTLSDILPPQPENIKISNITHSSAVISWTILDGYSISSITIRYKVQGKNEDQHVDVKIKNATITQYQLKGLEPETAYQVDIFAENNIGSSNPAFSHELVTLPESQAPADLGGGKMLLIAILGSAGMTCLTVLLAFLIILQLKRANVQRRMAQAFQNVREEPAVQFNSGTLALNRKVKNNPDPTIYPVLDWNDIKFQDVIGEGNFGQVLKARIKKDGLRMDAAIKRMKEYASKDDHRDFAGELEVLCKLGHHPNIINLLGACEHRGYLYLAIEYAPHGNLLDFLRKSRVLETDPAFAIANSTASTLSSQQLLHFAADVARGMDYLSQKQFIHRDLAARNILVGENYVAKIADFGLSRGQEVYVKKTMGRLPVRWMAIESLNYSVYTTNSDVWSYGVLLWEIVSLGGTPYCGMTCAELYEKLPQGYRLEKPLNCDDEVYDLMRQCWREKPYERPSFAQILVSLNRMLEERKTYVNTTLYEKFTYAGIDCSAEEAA

[3] = target: Aurora kinase B (Homo sapiens, UniProt Q96GD4); test: Selectivity interaction (ActivX KiNativ screen (kinase selectivity in THP-1 cell lysates)) EUB0000639a AURKB; format: subcellular; conditions: lysate, at 1 µM
Chain of Aurora kinase B (Q96GD4 whole entry): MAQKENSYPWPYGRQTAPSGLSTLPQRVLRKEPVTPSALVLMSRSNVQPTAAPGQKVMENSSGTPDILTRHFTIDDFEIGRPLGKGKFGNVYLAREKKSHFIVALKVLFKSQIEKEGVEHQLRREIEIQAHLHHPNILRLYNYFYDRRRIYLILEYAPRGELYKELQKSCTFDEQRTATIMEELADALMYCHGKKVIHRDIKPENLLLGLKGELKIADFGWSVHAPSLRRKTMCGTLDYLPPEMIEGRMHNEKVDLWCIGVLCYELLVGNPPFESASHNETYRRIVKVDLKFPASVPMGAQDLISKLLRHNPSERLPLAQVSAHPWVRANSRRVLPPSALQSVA

[4] = target: T2, Eukaryotic translation initiation factor 2-alpha kinase 3 (Homo sapiens) (UniProt Q9NZJ5); test: Selectivity interaction (ActivX KiNativ screen (kinase selectivity in THP-1 cell lysates)) EUB0000639a EIF2AK3; format: subcellular; conditions: lysate
T2 sequence (whole entry): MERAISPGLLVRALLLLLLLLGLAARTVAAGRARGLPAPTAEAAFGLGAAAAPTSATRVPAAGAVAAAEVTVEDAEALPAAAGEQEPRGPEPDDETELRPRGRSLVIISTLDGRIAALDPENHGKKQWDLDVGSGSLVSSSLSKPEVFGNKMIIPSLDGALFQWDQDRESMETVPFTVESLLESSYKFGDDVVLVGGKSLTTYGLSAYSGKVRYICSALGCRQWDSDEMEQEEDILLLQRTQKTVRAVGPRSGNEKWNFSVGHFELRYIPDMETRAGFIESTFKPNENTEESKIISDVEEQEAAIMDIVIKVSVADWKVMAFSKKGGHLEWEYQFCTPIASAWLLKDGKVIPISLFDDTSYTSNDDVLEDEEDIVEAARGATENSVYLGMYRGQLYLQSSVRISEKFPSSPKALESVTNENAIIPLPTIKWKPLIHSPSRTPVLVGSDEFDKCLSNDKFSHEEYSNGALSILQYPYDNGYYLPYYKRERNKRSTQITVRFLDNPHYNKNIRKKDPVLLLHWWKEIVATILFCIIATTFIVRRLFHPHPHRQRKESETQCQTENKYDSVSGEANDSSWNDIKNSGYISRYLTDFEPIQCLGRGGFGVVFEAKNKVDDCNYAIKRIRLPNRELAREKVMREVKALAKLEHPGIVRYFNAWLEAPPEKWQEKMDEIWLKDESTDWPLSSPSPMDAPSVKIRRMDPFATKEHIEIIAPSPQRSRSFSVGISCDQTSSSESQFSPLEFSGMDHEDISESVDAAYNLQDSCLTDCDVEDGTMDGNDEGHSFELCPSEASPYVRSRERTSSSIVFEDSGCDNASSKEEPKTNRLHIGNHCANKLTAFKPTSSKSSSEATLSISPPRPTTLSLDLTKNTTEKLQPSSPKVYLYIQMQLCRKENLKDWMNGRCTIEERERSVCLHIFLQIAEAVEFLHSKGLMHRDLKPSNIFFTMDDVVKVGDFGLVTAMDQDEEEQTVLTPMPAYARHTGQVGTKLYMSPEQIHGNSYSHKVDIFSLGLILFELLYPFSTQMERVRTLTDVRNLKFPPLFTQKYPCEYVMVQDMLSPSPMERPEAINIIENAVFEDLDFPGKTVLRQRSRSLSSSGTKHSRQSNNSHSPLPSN

[5] = target: DNA (cytosine-5)-methyltransferase 3B (Homo sapiens) (UniProt Q9UBC3); conditions: at 1 µM
[6] = target: T3, 3-phosphoinositide-dependent protein kinase 1 (Homo sapiens) (UniProt O15530); test: Selectivity interaction (KinomeScan (DiscoverX)) EUB0001619a PDPK1; conditions: at 1 µM
T3 sequence (whole entry): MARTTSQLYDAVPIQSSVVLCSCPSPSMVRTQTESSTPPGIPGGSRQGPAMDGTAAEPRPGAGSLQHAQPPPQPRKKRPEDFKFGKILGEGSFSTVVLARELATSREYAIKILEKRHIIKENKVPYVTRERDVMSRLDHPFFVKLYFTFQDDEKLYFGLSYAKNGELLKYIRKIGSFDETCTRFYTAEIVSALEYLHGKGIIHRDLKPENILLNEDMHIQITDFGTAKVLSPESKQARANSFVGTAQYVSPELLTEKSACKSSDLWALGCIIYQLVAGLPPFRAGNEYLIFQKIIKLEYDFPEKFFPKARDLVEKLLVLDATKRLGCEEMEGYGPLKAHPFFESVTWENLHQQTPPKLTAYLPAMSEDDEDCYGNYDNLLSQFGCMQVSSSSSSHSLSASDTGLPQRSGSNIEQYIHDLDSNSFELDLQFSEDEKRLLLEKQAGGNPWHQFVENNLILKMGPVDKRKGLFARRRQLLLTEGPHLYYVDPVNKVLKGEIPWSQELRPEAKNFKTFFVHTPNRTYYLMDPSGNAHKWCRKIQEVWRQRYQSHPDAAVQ

SMILES: COCCN1CCC(c2cc(CN(C)C(=O)c3cccc(Oc4ccccc4)c3)ccn2)CC1
- % activity ([1]; at 1 µM): > 95%
- % activity ([1]; at 10 µM): > 90%

SMILES: CCC(=O)N1CCN(c2ccc(-n3c(=O)ccc4cnc5ccc(-c6cnc7ccccc7c6)cc5c43)cc2C(F)(F)F)CC1
- % of control [2]: 19%

SMILES: CC[C@@H]1[C@H](F)C(=O)N[C@@H]1COc1nccc2cc(C(N)=O)c(OC)cc12 [ZIMLOVISERTIB]
- % of inhibition [3]: 20%
- % of inhibition ([4]; at 0.01 µM): 5.1%
- % of inhibition ([4]; at 0.04 µM): -15.8%
- % of inhibition ([4]; at 0.2 µM): -12.3%
- % of inhibition ([4]; at 1 µM): -2.3%
- % of inhibition ([4]; at 5 µM): -20.8%

SMILES: CNCCN1CCC(c2cc(CN(C)C(=O)c3cccc(Oc4ccccc4)c3)ccn2)CC1
- % activity [5]: > 85%

SMILES: N#Cc1cccc(-c2c[nH]c3ncnc(N4CCOCC4)c23)c1
- % of control [6]: 100%
